Data as given in ChEMBL document CHEMBL3244214, “Molar volume relationships and the specific inhibition of a synaptosomal enzyme by psychoactive cannabinoids” (J Med Chem, 1978).

Columns and labels:
[1] = Inhibition of mouse brain synaptosomal Lysophosphatidylcholine acyltransferase using substrate [32P]lysophosphatidylcholine and oleoyl-CoA
[2] = Antihemolytic potency against hypotonic lysis-induced erythrocytes (unknown origin) assessed as stabilization; assay type: functional, Erythrocyte
[3] = Molar volume, Vm of the compound at zero temperature; assay type: physicochemical

SMILES	pKi [1]	pAH50 [2]	Vm [3]
CN(C)CCCN1c2ccccc2Sc2ccc(Cl)cc21 [CHLORPROMAZINE]	3.1	5.09	2.406 ×10⁻⁴ m3/mol
CCCCCCc1cc(O)c2c(c1)OC(C)(C)C1=C2CC(C)CC1 (centres undefined)	3.6	4.03	2.828 ×10⁻⁴ m3/mol
Oc1ccccc1Cl [2-CHLOROPHENOL]	2.48	2.94	8.975 ×10⁻⁵ m3/mol
CCCCCc1cc(O)c2c(c1)OC(C)(C)c1ccc(C)cc1-2 [CANNABINOL]	3.26	4.4	2.601 ×10⁻⁴ m3/mol
CCCCCc1cc(O)c(C/C=C(\C)CCC=C(C)C)c(O)c1 [CANNABIGEROL]	3.59	4.66	2.861 ×10⁻⁴ m3/mol
CCCCCCCCO [OCTANOL]	2.77	3.63	1.295 ×10⁻⁴ m3/mol
CCCCCc1cc(O)c2c(c1)OC(C)(C)[C@@H]1CCC(CO)=C[C@@H]21	4.07	3.72	2.746 ×10⁻⁴ m3/mol
CCCCCCCCCCO [DECANOL]	3.77	5	1.576 ×10⁻⁴ m3/mol
CCCCCc1cc(O)c2c(c1)OC(C)(C)[C@@H]1CCC(C)=C[C@@H]21 [DRONABINOL]	6.52	4.1	2.687 ×10⁻⁴ m3/mol
CCCCCCCCCO [NONANOL]	3.24	4.39	–
CC(C)[C@]12CC(=O)[C@H](C)[C@H]1C2	3.15	3	1.132 ×10⁻⁴ m3/mol
CCCCCc1cc(O)c2c(c1)OC(C)(C)[C@@H]1CC=C(C)C[C@@H]21 [DELTA-8-TETRAHYDROCANNABINOL]	4.24	3.85	2.687 ×10⁻⁴ m3/mol
Oc1ccc(Cl)cc1 [PARACHLOROPHENOL]	2.74	3.13	8.975 ×10⁻⁵ m3/mol
CCCCCCCCCCCCO [DODECANOL]	3.39	5.27	1.858 ×10⁻⁴ m3/mol
CC1=C(/C=C/C(C)=C/C=C/C(C)=C/CO)C(C)(C)CCC1 [RETINOL]	3.82	5.49	2.865 ×10⁻⁴ m3/mol
